{"source": "paper PMC5175396", "about": "“Cytotoxicity of Plumbagin, Rapanone and 12 other naturally occurring Quinones from Kenyan Flora towards human carcinoma cells” (BMC Pharmacology & Toxicology, 2016)", "key": {"[1]": {"test_system": "PF-382 leukemia T-cells, MiaPaCa-2 pancreatic cells, U87MG glioblastoma-astrocytoma cells, Colo-38 skin melanoma cells, HeLa and Caski cervical carcinoma cells", "set-up": "method as in PMID 21886765", "conditions": "PF-382, MiaPaCa-2, U87MG, Colo-38, HeLa, read-out: IC50 against a panel of cancer cell lines; cited from earlier work"}, "[2]": {"test_system": "MCF-7 breast adenocarcinoma cells", "assay": "Neutral red (NR) uptake cytotoxicity assay, MCF-7", "format": "cell-based, human", "conditions": "for IC50: read-out: IC50 MCF-7", "text": "(§1) Six human cancer cell lines and one normal cell line were used in this study. They included A549 human non-small cell lung cancer (NSCLC) cell line, obtained from the Institute for Fermentation, Osaka (IFO, Japan) and provided by Prof. Dr. Tansu Koparal (Anadolu University, Eskisehir, Turkey), SPC212 human mesothelioma cell line obtained from American Type Culture Collection (ATCC) and provided by Dr. Asuman Demiroğlu Zergeroğlu (Gebze Technical University, Kocaeli, Turkey), DLD-1 colorectal adenocarcinoma cell lines obtained from ATCC (CCL-221), Caco2 colorectal adenocarcinoma cells (ATCC, HTB-37) obtained from the ŞAP Institute of Turkey (Ankara), HepG2 hepatocarcinoma cells (ATCC, HB-8065) and MCF-7 breast adenocarcinoma cells (ATCC, HTB-22) were provided by Prof. Dr. Tansu Koparal (Anadolu University, Eskisehir, Turkey). The normal CRL2120 human skin fibroblasts were obtained from ATCC [CCD1094Sk (ATCC, CRL-2120)]. The cells were maintained as a monolayer in DMEM medium (Sigma-aldrich, Munich, Germany) medium supplemented with 10% fetal calf serum and 1% penicillin (100 U/mL)-streptomycin (100 μg/mL) in a humidified 5% CO2 atmosphere at 37 °C.\n(§2) The cytotoxicity of samples was performed by NR uptake assay as previously described. This method is based on the ability of viable cells to incorporate and bind the supravital dye NR in the lysosomes. The procedure is cheaper and more sensitive than other cytotoxicity tests. […] Briefly, cells were detached by treatment with 0.25% trypsin/EDTA (Invitrogen) and an aliquot of 1 × 10^4 cells was placed in each well of a 96-well cell culture plate […]. The cells were allowed to attach overnight and subsequently treated with different concentrations of the 14 compounds. Each of the studied samples was immediately added in varying concentrations in additional 100 μL of culture medium to obtain a total volume of […]/well. After 72 h incubation in humidified 5% CO2 atmosphere at 37 °C, the medium was removed and 200 μL fresh medium containing 50 μg/mL NR was added to each well and incubation continued for an additional 3 h at 37 °C in 5% CO2 atmosphere. The dye medium was then removed and each well was then washed rapidly with 200 μL phosphate buffer saline (PBS) followed by addition of 200 μL of acetic acid-water-ethanol in water (1:49:50). The plates were kept for 15 min at room temperature to extract the dye and then shaken for a few minutes on a GFL 3012 shaker (Gesellschaft für Labortechnik mbH, Burgwedel, Germany). Absorbance was measured on ELx 808 Ultra Microplate Reader (Biotek) equipped with a 540 nm filter. Each assay was done at least three times, with three replicates each. The viability was evaluated based on a comparison with untreated cells. The IC50 values represent the sample’s concentrations required to inhibit 50% of cell proliferation and were calculated from a calibration curve by linear regression using Microsoft Excel."}, "[3]": {"test_system": "six tested cancer cell lines (A549, SPC212, DLD-1, Caco-2, MCF-7, HepG2)", "assay": "Neutral red uptake assay, statements over the six tested cancer cell lines", "format": "cell-based, human", "conditions": "for IC50: Homo sapiens, bound valid for all six cancer cell lines, neutral red assay", "text": "as §1, §2"}, "[4]": {"test_system": "normal CRL2120 human skin fibroblasts", "assay": "Neutral red (NR) uptake cytotoxicity assay, normal CRL2120 fibroblasts", "format": "cell-based", "conditions": "Skin fibroblast, 72 h incubation", "text": "as §1, §2"}, "[5]": {"test_system": "Caco2 colorectal adenocarcinoma cells", "assay": "Neutral red (NR) uptake cytotoxicity assay, Caco-2", "format": "cell-based, human", "conditions": "Homo sapiens, Caco-2; neutral red assay, 72 h incubation", "text": "as §1, §2"}, "[6]": {"assay": "Neutral red (NR) uptake cytotoxicity assay, Caco-2", "format": "cell-based, human", "conditions": "human; IC50 in CRL2120 normal fibroblasts divided by IC50 in Caco-2; read-out: selectivity index Caco-2 (converted)", "text": "as §1, §2"}, "[7]": {"test_system": "A549 human non-small cell lung cancer (NSCLC) cell line", "assay": "Neutral red (NR) uptake cytotoxicity assay, A549", "format": "cell-based", "text": "as §1\nas §2, with “lysosomes.” for “lysosomes. The procedure is cheaper and more sensitive than other cytotoxicity tests.”"}, "[8]": {"test_system": "HepG2 hepatocarcinoma cells", "assay": "Neutral red (NR) uptake cytotoxicity assay, HepG2", "format": "cell-based, human", "conditions": "for IC50: Homo sapiens, read-out: IC50 HepG2", "text": "as §1, §2"}, "[9]": {"test_system": "DLD-1 colorectal adenocarcinoma cell lines", "assay": "Neutral red (NR) uptake cytotoxicity assay, DLD-1", "format": "cell-based, human", "conditions": "for IC50: Homo sapiens, read-out: IC50 DLD-1", "text": "as §1, §2"}, "[10]": {"test_system": "SPC212 human mesothelioma cell line", "assay": "Neutral red (NR) uptake cytotoxicity assay, SPC212", "format": "cell-based", "conditions": "for IC50: Homo sapiens, 72 h", "text": "as §1, §2"}, "MCF-7 cells [11]": {"test_system": "MCF-7 cells", "assay": "Mitochondrial membrane potential (MMP) analysis, JC-1 staining, flow cytometry", "format": "cell-based, human", "conditions": "IC50 (C3), 72 h, control 4.3%", "procedure": "The MMP was analyzed in MCF-7 cells by 5,5′,6,6′-tetrachloro-1,1′,3,3′-tetraethylbenzimidazolylcarbocyanine iodide) (JC-1; Biomol, Hamburg, Germany) staining as previously reported. […] Subsequently, cells were measured in a BD FACS Aria I Cell Sorter Flow Cytometer (Becton-Dickinson, Germany). The JC-1 signal was measured at an excitation of 561 nm (150 mW) and detected using a 586/15 nm band-pass filter. The signal was analyzed at 640 nm excitation (40 mW) and detected using a 730/45 nm bandpass filter. Cytographs were analyzed using BD FACSDiva™ Flow Cytometry Software Version 6.1.2 (Becton-Dickinson). All experiments were performed at least in triplicate."}, "MCF-7 cells [12]": {"test_system": "MCF-7 cells", "assay": "Flow cytometry cell cycle analysis and detection of apoptotic cells", "format": "cell-based, human", "conditions": "IC50, 72 h, non-treated cells 3.1%", "procedure": "The cell-cycle analysis was performed by flow cytometry using BD cycletest^TM Plus DNA Kit Assay (BD Biosciences, San Jose, USA). The BD Cycletest™ Plus DNA kit provides a set of reagents for isolating and staining cell nuclei. Flow cytometric analysis of differentially stained cells is used to estimate the DNA index (DI) and cell-cycle phase distributions. Briefly, MCF-7 cells (3 mL, 1 × 10^5 cells/mL) were seeded into each well of 6-well plates and allowed to attach for 24 h. […] The untreated cells (control) were also included in the assay. They were further trypsinized and suspended in 1 mL PBS, then centrifuged at 400 g for 5 min at room temperature (RT). The cells were further processed according to the manufacturer protocol: addition of 250 μL of solution A (trypsin buffer), 10 min incubation at RT followed by the addition of 200 μL of solution B (trypsin inhibitor and RNAse buffer), 10 min incubation at RT followed by the addition of 200 μL of solution C (2–8 °C) (propidium iodide stain solution), 10 min on ice. The cells were further measured on a BD FACS Aria I Cell Sorter Flow Cytometer (Becton-Dickinson, Germany). For each sample, 10^4 cells were counted. For PI excitation, an argon-ion laser emitting at 488 nm was used. Cytographs were analyzed using BD FACSDiva™ Flow Cytometry Software Version 6.1.2 (Becton-Dickinson)."}, "MCF-7 cells [13]": {"test_system": "MCF-7 cells", "assay": "Measurement of reactive oxygen species (ROS), DCFH-DA", "format": "cell-based, human", "conditions": "at IC50, 24 h", "procedure": "This is a cell-based assay for measuring hydroxyl, peroxyl, or other reactive oxygen species activity within a cell. The assay employs the cell-permeable fluorogenic probe 2′,7′-dichlorodihydrofluorescin diacetate (DCFH-DA). DCFH-DA is diffused into cells and is deacetylated by cellular esterases to non-fluorescent 2′,7′-dichlorodihydrofluorescin (DCFH), which is rapidly oxidized to highly fluorescent 2′,7′-dichlorofluorescein (DCF) by ROS. […] After addition of 100 μL 1× DCFH-DA/DMEM solution to cells and incubation at 37 °C for 30–60 min, the fluorescence was measured using SpectraMax® M5 Microplate Reader (Molecular Devices, Biberach, Germany) at 480/530 nm. All experiments were performed at least in triplicate."}}, "note": "Like-named read-outs stand apart in the source and are kept apart here."}
{"smiles": "CC(=O)c1cc2c(o1)C(=O)c1ccccc1C2=O", "note": "[2-acetylfuro-1,4-naphthoquinone]", "values": [{"measurement": "IC50", "setting": "[1]", "result": "< 10", "unit": "µM"}]}
{"smiles": "CCCC/C=C\\CCCCCCCCCCCCCC1=C(OC(C)=O)C(OC(C)=O)C(C)=C(OC(C)=O)C1OC(C)=O", "note": "(stereo not drawn) [Compound 13, 1,2,4,5-tetraacetate-3-methyl-6-(14-nonadecenyl)-cyclohexadi-2,5-diene]", "values": [{"measurement": "IC50", "setting": "[2]; Homo sapiens, MCF7, 72 h, neutral red assay, 72 h incubation", "result": "< 10", "unit": "µM"}, {"measurement": "selectivity index MCF-7", "setting": "[2]; IC50 in CRL2120 normal fibroblasts divided by IC50 in MCF-7", "result": 10.08}, {"measurement": "IC50", "setting": "[2]; neutral red assay, 72 h incubation", "result": "9.25 ± 0.16", "unit": "µM"}, {"measurement": "IC50", "setting": "[3]", "result": "< 100", "unit": "µM"}, {"measurement": "selectivity indexes (CRL2120 vs carcinoma cells), lower bound over the cancer cell lines", "setting": "[3]; IC50 CRL2120 / IC50 cancer cell line", "result": "> 1.96"}, {"measurement": "IC50", "setting": "[4]", "result": "93.2 ± 1.17", "unit": "µM"}, {"measurement": "IC50", "setting": "[5]", "result": "24.6 ± 2.71", "unit": "µM"}, {"measurement": "selectivity ratio at 72 h", "setting": "[6]", "result": 3.78}, {"measurement": "IC50", "setting": "[7]; Homo sapiens, A549, 72 h, neutral red assay, 72 h incubation", "result": "47.5 ± 3.56", "unit": "µM"}, {"measurement": "selectivity index A549", "setting": "[7]; IC50 in CRL2120 normal fibroblasts divided by IC50 in A549", "result": 1.96}, {"measurement": "IC50", "setting": "[8]; HepG2, neutral red assay, 72 h incubation", "result": "18.2 ± 1.46", "unit": "µM"}, {"measurement": "selectivity index HepG2", "setting": "[8]; IC50 in CRL2120 normal fibroblasts divided by IC50 in HepG2", "result": 5.13}, {"measurement": "IC50", "setting": "[9]; DLD-1, neutral red assay, 72 h incubation", "result": "25.1 ± 1.5", "unit": "µM"}, {"measurement": "selectivity index DLD-1", "setting": "[9]; IC50 in CRL2120 normal fibroblasts divided by IC50 in DLD-1", "result": 3.72}, {"measurement": "IC50", "setting": "[10]; neutral red assay, 72 h incubation, read-out: IC50 SPC212", "result": "36.2 ± 3.08", "unit": "µM"}, {"measurement": "selectivity index SPC212", "setting": "[10]; IC50 in CRL2120 normal fibroblasts divided by IC50 in SPC212", "result": 2.57}]}
{"smiles": "COc1cccc2c1C(=O)c1c(O)c3c(c(O)c1C2=O)C[C@@](O)(C(=O)CO)C[C@@H]3O[C@H]1C[C@H](N)[C@H](O)[C@H](C)O1", "note": "[Doxorubicin, reference compound]", "values": [{"measurement": "IC50", "setting": "[2]; Homo sapiens, MCF7, 72 h", "result": "0.35 ± 0.05", "unit": "µM"}, {"measurement": "IC50", "setting": "[3]", "result": "< 100", "unit": "µM"}, {"measurement": "IC50", "setting": "[4]", "result": "0.59 ± 0.01", "unit": "µM"}, {"measurement": "IC50", "setting": "[5]", "result": "0.72 ± 0.13", "unit": "µM"}, {"measurement": "MMP, gate P2 (loss / depletion of MMP)", "setting": "MCF-7 cells [11]", "result": 26, "unit": "%"}, {"measurement": "Sub-G0/G1 (apoptotic) cells, % of cells", "setting": "MCF-7 cells [12]", "result": 60, "unit": "%"}, {"measurement": "IC50", "setting": "[8]; HepG2, 72 h", "result": "0.18 ± 0.03", "unit": "µM"}, {"measurement": "increase in ROS levels as compared with non-treated cells", "setting": "MCF-7 cells [13]", "result": "more than 2 fold"}, {"measurement": "IC50", "setting": "[9]; DLD-1, 72 h", "result": "0.37 ± 0.05", "unit": "µM"}, {"measurement": "IC50", "setting": "[10]; read-out: IC50 SPC#", "result": "0.07 ± 0.01", "unit": "µM"}]}
